According to patent publication US20250108038A1 (priority 2023, published 2025):
Where “and” joins values, the source holds several entries; their conditions need not be identical. Equal entries are not always repeated.

System: Long Evans rats
Assay: Behavioral satiety sequence (BSS)
Format: in vivo, Long Evans rat
From the text: The Behavioural Satiety Sequence (BSS) is a technique used to evaluate physiological satiety. It is based on the expression of a sequence of behaviors including eating, grooming, locomotor activity, followed by resting, which are typically observed in rodents post-ingestion (Halford et al, 1998, Pharmacology Biochemistry and Behaviour. 61(2): 159-168). The BSS is a widely used model for determining the effects of novel pharmaceuticals on food intake and measures of satiety in rodents (Oliveira et al, 2011, Revista de Nutrição. 24(4) 619-628), and to discriminate the cause of reduced food intake following pharmacological manipulation. For example, treatments that may reduce food intake by non-specific mechanisms, such as immobility, malaise, and taste adulteration, will disrupt this sequence (Halford et al, 1998, Pharmacology Biochemistry and Behaviour. 61(2): 159-168).
Specifically, 12 male Long-Evans rats were food-deprived for 22 h with a 2 h feeding period each day. Rats were trained to consume daily food during the 2 h period over 25 days. The testing phase was initiated once the rats consistently consumed 16-18 g of food per day with ≤10% variance in amount of feed consumed. Feeding took place in designated individual boxes in a quiet room separate from the housing room. Continuous remote monitoring via video camera during feeding was used to assess the BSS. Food consumption was measured by weighing the total available food before and after the 2 h feeding window, correcting for spillage. Lorcaserin (1 mg/kg) was included as a reference control (Higgins et al, 2011, Neuropsychopharmacology. 37(5): 1177-1191). Subjects were tested using a repeated-measures, Latin square design with 2-3 days wash-out between treatment cycles.
On scheduled test days, animals were monitored remotely via video camera during the feeding access period. The occurrence of four mutually exclusive behaviors (eating/drinking, grooming, active, rest) were individually scored. Over the 2 h feeding period, behaviors were assessed every 30 seconds. Scores were compiled into 23 5 min timebins (timebin 24 was removed due to early removal of animals) and the frequency of each behavior within each timebin was calculated to determine a temporal frequency of each measure (Rodgers et al, 2010, Pharmacology Biochemistry and Behaviour. 97: 3-14). Percentage time was plotted for each behavioral sequence in each timebin to compare between treatment groups (Higgins et al, 2011, Neuropsychopharmacology. 37(5): 1177-1191).

[1] = Compound I-19 3 mg/kg i.p., raw score per animal
[2] = Compound I-19 3 mg/kg, AVG of 12 animals
[3] = Compound I-19 3 mg/kg, raw score of individual animals LT-1 to LT-12
[4] = Compound I-19 i.p., first dose group after lorcaserin (dose not given), raw score per animal

Compound: Clc1ccc(C2(OCC3OCCO3)c3ccccc3C3=NCCN32)cc1 (stereo not shown) [Compound I-19]
- BSS scoring R (resting), Time Bin 4 (15-20 TOTAL) [1]: 1 (2×) and 0 (10×)
- BSS scoring R (resting), Time Bin 5 (20-25 TOTAL) [1]: 0 (10×) and 1 (2×)
- BSS scoring R (resting), Time Bin 6 (25-30 TOTAL) [1]: 0 (9×) and 1 and 2 (2×)
- BSS scoring A (active), Time Bin 13 (60-65 TOTAL), AVG [2]: 0.18
- BSS scoring A (active), Time Bin 14 (65-70 TOTAL), AVG [2]: 0.15
- BSS scoring A (active), Time Bin 15 (70-75 TOTAL), AVG [2]: 0.28
- BSS scoring A (active), Time Bin 16 (75-80 TOTAL), AVG [2]: 0.03
- BSS scoring A (active), Time Bin 17 (80-85 TOTAL), AVG [2]: 0.18
- BSS scoring A (active), Time Bin 18 (85-90 TOTAL), AVG [2]: 0.12
- BSS scoring E (eating/drinking), Time Bin 13 (60-65 TOTAL), AVG [2]: 0.72
- BSS scoring E (eating/drinking), Time Bin 14 (65-70 TOTAL), AVG [2]: 0.63
- BSS scoring E (eating/drinking), Time Bin 15 (70-75 TOTAL), AVG [2]: 0.53
- BSS scoring E (eating/drinking), Time Bin 16 (75-80 TOTAL), AVG [2]: 0.71
- BSS scoring E (eating/drinking), Time Bin 17 (80-85 TOTAL), AVG [2]: 0.63
- BSS scoring E (eating/drinking), Time Bin 18 (85-90 TOTAL), AVG [2]: 0.65
- BSS scoring G (grooming), Time Bin 13 (60-65 TOTAL), AVG [2]: 0.02
- BSS scoring G (grooming), Time Bin 14 (65-70 TOTAL), AVG [2]: 0.02
- BSS scoring G (grooming), Time Bin 15 (70-75 TOTAL), AVG [2]: 0.06
- BSS scoring G (grooming), Time Bin 16 (75-80 TOTAL), AVG [2]: 0.05
- BSS scoring G (grooming), Time Bin 17 (80-85 TOTAL), AVG [2]: 0.03
- BSS scoring G (grooming), Time Bin 18 (85-90 TOTAL), AVG [2]: 0.07
- BSS scoring R (resting), Time Bin 13 (60-65 TOTAL), AVG [2]: 0.09
- BSS scoring R (resting), Time Bin 14 (65-70 TOTAL), AVG [2]: 0.21
- BSS scoring R (resting), Time Bin 15 (70-75 TOTAL), AVG [2]: 0.13
- BSS scoring R (resting), Time Bin 16 (75-80 TOTAL), AVG [2]: 0.22
- BSS scoring R (resting), Time Bin 17 (80-85 TOTAL), AVG [2]: 0.17
- BSS scoring R (resting), Time Bin 18 (85-90 TOTAL), AVG [2]: 0.17
- BSS scoring A (active), Time Bin 13 (60-65 TOTAL) [3]: 3 and 0 (3×) and 2 (4×) and 1 (2×) and 4 (2×)
- BSS scoring A (active), Time Bin 14 (65-70 TOTAL) [3]: 8 and 0 (5×) and 1 (5×) and 5
- BSS scoring A (active), Time Bin 15 (70-75 TOTAL) [3]: 3 (2×) and 0 (5×) and 5 (3×) and 4 and 9
- BSS scoring A (active), Time Bin 16 (75-80 TOTAL) [3]: 0 (10×) and 1 and 2
- BSS scoring A (active), Time Bin 17 (80-85 TOTAL) [3]: 0 (6×) and 8 and 2 and 3 and 4 (2×) and 1
- BSS scoring A (active), Time Bin 18 (85-90 TOTAL) [3]: 0 (7×) and 2 and 3 (2×) and 1 and 5
- BSS scoring E (eating/drinking), Time Bin 13 (60-65 TOTAL) [3]: 6 (3×) and 8 (4×) and 7 and 9 and 10 (2×) and 0
- BSS scoring E (eating/drinking), Time Bin 14 (65-70 TOTAL) [3]: 2 (2×) and 8 (2×) and 9 (3×) and 10 and 3 (2×) and 7 and 5
- BSS scoring E (eating/drinking), Time Bin 15 (70-75 TOTAL) [3]: 7 (3×) and 9 and 8 and 5 (2×) and 0 (3×) and 6 and 10
- BSS scoring E (eating/drinking), Time Bin 16 (75-80 TOTAL) [3]: 10 (4×) and 8 (3×) and 3 and 0 and 2 and 9 and 7
- BSS scoring E (eating/drinking), Time Bin 17 (80-85 TOTAL) [3]: 7 and 2 and 8 and 10 (4×) and 0 (2×) and 3 and 6 and 9
- BSS scoring E (eating/drinking), Time Bin 18 (85-90 TOTAL) [3]: 10 (4×) and 8 (2×) and 5 (2×) and 0 (2×) and 9 and 3
- BSS scoring G (grooming), Time Bin 13 (60-65 TOTAL) [3]: 1 (2×) and 0 (10×)
- BSS scoring G (grooming), Time Bin 14 (65-70 TOTAL) [3]: 0 (11×) and 2
- BSS scoring G (grooming), Time Bin 15 (70-75 TOTAL) [3]: 0 (8×) and 1 (3×) and 4
- BSS scoring G (grooming), Time Bin 16 (75-80 TOTAL) [3]: 0 (8×) and 1 (3×) and 3
- BSS scoring G (grooming), Time Bin 17 (80-85 TOTAL) [3]: 0 (10×) and 1 and 2
- BSS scoring G (grooming), Time Bin 18 (85-90 TOTAL) [3]: 0 (8×) and 4 and 1 (2×) and 2
- BSS scoring R (resting), Time Bin 13 (60-65 TOTAL) [3]: 0 (8×) and 2 (2×) and 1 and 6
- BSS scoring R (resting), Time Bin 14 (65-70 TOTAL) [3]: 0 (4×) and 2 (3×) and 1 (2×) and 6 and 7 and 4
- BSS scoring R (resting), Time Bin 15 (70-75 TOTAL) [3]: 0 (8×) and 2 and 5 (2×) and 3
- BSS scoring R (resting), Time Bin 16 (75-80 TOTAL) [3]: 0 (4×) and 1 (4×) and 3 and 9 and 2 and 8
- BSS scoring R (resting), Time Bin 17 (80-85 TOTAL) [3]: 3 (2×) and 0 (7×) and 1 and 8 and 5
- BSS scoring R (resting), Time Bin 18 (85-90 TOTAL) [3]: 0 (7×) and 2 (2×) and 6 and 9 and 1
- effect on the behavioral satiety sequence (BSS) (Compound I-19 0.1-3 mg/kg IP, lorcaserin 1 mg/kg SC): did not affect the BSS compared to vehicle pretreatment
- BSS scoring A (active), Time Bin 7 (30-35 TOTAL) [4]: 2 and 0
- BSS scoring A (active), Time Bin 8 (35-40 TOTAL) [4]: 2 and 0
- BSS scoring A (active), Time Bin 9 (40-45 TOTAL) [4]: 1 and 2
- BSS scoring A (active), Time Bin 10 (45-50 TOTAL) [4]: 1
- BSS scoring A (active), Time Bin 11 (50-55 TOTAL) [4]: 1 and 0
- BSS scoring A (active), Time Bin 12 (55-60 TOTAL) [4]: 1 and 2
- BSS scoring E (eating/drinking), Time Bin 7 (30-35 TOTAL) [4]: 6 and 9
- BSS scoring E (eating/drinking), Time Bin 8 (35-40 TOTAL) [4]: 6 and 9
- BSS scoring E (eating/drinking), Time Bin 9 (40-45 TOTAL) [4]: 9 and 6
- BSS scoring E (eating/drinking), Time Bin 10 (45-50 TOTAL) [4]: 7
- BSS scoring E (eating/drinking), Time Bin 11 (50-55 TOTAL) [4]: 8 and 10
- BSS scoring E (eating/drinking), Time Bin 12 (55-60 TOTAL) [4]: 5 and 8
- BSS scoring G (grooming), Time Bin 7 (30-35 TOTAL) [4]: 0 and 1
- BSS scoring G (grooming), Time Bin 8 (35-40 TOTAL) [4]: 1
- BSS scoring G (grooming), Time Bin 9 (40-45 TOTAL) [4]: 0 and 1
- BSS scoring G (grooming), Time Bin 10 (45-50 TOTAL) [4]: 1
- BSS scoring G (grooming), Time Bin 11 (50-55 TOTAL) [4]: 0
- BSS scoring G (grooming), Time Bin 12 (55-60 TOTAL) [4]: 1 and 0
- BSS scoring R (resting), Time Bin 7 (30-35 TOTAL) [4]: 2 and 0
- BSS scoring R (resting), Time Bin 8 (35-40 TOTAL) [4]: 1 and 0
- BSS scoring R (resting), Time Bin 9 (40-45 TOTAL) [4]: 0 and 1
- BSS scoring R (resting), Time Bin 10 (45-50 TOTAL) [4]: 1
- BSS scoring R (resting), Time Bin 11 (50-55 TOTAL) [4]: 1 and 0
- BSS scoring R (resting), Time Bin 12 (55-60 TOTAL) [4]: 3 and 0
